Data from US20240174690A1, “ANNULATED 2-AMINO-3-CYANO THIOPHENES AND DERIVATIVES FOR THE TREATMENT OF CANCER” (BOEHRINGER INGELHEIM INTERNATIONAL GMBH, priority 2021, published 2024).
Read-outs that look alike come from different tables or passages of the source.

Columns and labels:
[1] = system: KRAS G12C-dependent Ba/F3 cells; assay: Ba/F3 proliferation assay, KRAS G12C; format: cell-based; details: Mus musculus, BaF3, 72 h, AlamarBlue
Method in brief: (§1)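 Ba/F3 cells were retrovirally transduced with KRAS G12 mutant vectors, puromycin-selected (1 μg/mL) and grown without IL-3 to make them KRAS-dependent. Compounds were tested in technical duplicates, viability was read by AlamarBlue fluorescence, and values came from curve fitting.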

[2] = system: KRAS G12V-dependent Ba/F3 cells; assay: Ba/F3 proliferation assay, KRAS G12V; format: cell-based; details: Mus musculus, BaF3, 72 h, AlamarBlue;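 note: proliferation IC50 in KRAS G12V-dependent Ba/F3 cells read by AlamarBlue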
Method in brief: as §1

[3] = system: NCI-H358 cells; assay: NCI-H358 CTG proliferation assay (120 h) (NSCLC, G12C); format: cell-based, human; details: Homo sapiens
Method in brief: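 NCI-H358 cells (KRAS G12C) were seeded at 2000/well (assay 1) or 200/well (assay 2) in RPMI-1640 + 10% FCS and dosed with a logarithmic series, DMSO-normalized. After 120 h, viability was read by CellTiter-Glo luminescence as percent of DMSO control, with a T0 read at dosing. IC50 came from a four-parameter fit.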

[4] = system: SAS cells; assay: SAS CTG proliferation assay (120 h) (HNSCC, wt amplified); format: cell-based
Method in brief: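 SAS cells plated at 300 per well in DMEM:F12 with 10% FCS and left overnight, then given compounds acoustically. After 120 h exposure, viability read by CellTiter-Glo as percent of DMSO control. IC50 from four-parameter non-linear regression.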

[5] = Metabolic (microsomal) stability assay, human liver microsomes (HLM); format: in vitro ADME; details: predicted clearance as percent of liver blood flow, 1 μM
Method in brief: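 LC-MS/MS tracked parent disappearance at 0, 5, 15, 30 and 60 min in NADPH-initiated incubations with 1 mg/mL human microsomal protein and 1 μM compound at 37°C, pH 7.5. First-order fits gave intrinsic clearance, which was scaled up and reported as % QH. NADPH-free controls were also run.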

[6] = Plasma protein binding assay (PPB), equilibrium dialysis, 10% FCS in PBS; format: in vitro ADME; details: bovine, read-out: PPB 10% FCS (% fu)
Method in brief: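 Equilibrium dialysis (5-10 kg/mol cut-off membrane) of 1-10 μmol/L test compound in 10% FCS/PBS against PBS with or without dextran, 3-5 h at 37° C. Compound in each chamber quantified by LC-MS after protein precipitation; fu calculated from Cserum and Cbuffer.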

[7] = assay 2, CTG, read-out: H358 (assay 2) IC50
[8] = assay 1, CTG, read-out: H358 (assay 1) IC50

CO[C@@H]1C[C@@H]([C@H](C)Oc2cc(N3CCN(C)C4(CC4)C3)nc(-c3onc4c3CCC[C@@]43CCCc4sc(N)c(C#N)c43)n2)N(C)C1 [I-50]
IC50 [1]: 448 nM | IC50 [2]: 811 nM | IC50 [3, 7]: 733 nM | IC50 [4]: 2900 nM | HLM QH [5]: 44% | fraction unbound [6]: 0.14

C[C@H](Oc1cc(N2CCNC3(CCCC3)C2)nc(-c2noc3c2CCC[C@@]32CCCc3sc(N)c(C#N)c32)n1)[C@@H]1CCCN1C [II-41]
IC50 [1]: 490 nM | IC50 [2]: 980 nM | IC50 [3, 7]: 1520 nM | IC50 [4]: 2110 nM | HLM QH [5]: <24% | fraction unbound [6]: 0.1

C[C@H](Oc1cc(-c2ccn(CC(C)(C)O)n2)nc(-c2onc3c2CCC[C@@]32CCCc3sc(N)c(C#N)c32)n1)[C@@H]1CCCN1C [I-26]
IC50 [1]: 17 nM | IC50 [2]: 13 nM | IC50 [3, 7]: 140 nM | IC50 [4]: 89 nM | HLM QH [5]: <24% | fraction unbound [6]: 0.23

COCCNC(=O)c1ccn(-c2cc(O[C@@H](C)[C@@H]3[C@@H](OC)CCN3C)nc(-c3onc4c3CCC[C@@]43CCCc4sc(N)c(C#N)c43)n2)n1 [I-55]
IC50 [1]: 2 nM | IC50 [2]: 1 nM | IC50 [3, 7]: 5 nM | IC50 [4]: 10 nM | HLM QH [5]: 56% | fraction unbound [6]: 0.06

C[C@H](Oc1cc(-c2ccn(C)n2)nc(-c2noc3c2CCC[C@@]32CCCc3sc(N)c(C#N)c32)n1)[C@@H]1C[C@@H](F)CN1C [II-27]
IC50 [1]: 18 nM | IC50 [2]: 16 nM | IC50 [3, 8]: 112 nM | IC50 [3, 7]: 44 nM | IC50 [4]: 151 nM | HLM QH [5]: 44% | fraction unbound [6]: 0.05

C[C@H](Oc1cc(-n2ccnc2)nc(-c2onc3c2CCC[C@@]32CCCc3sc(N)c(C#N)c32)n1)[C@@H]1CCCN1C [I-20]
IC50 [1]: 14 nM | IC50 [2]: 10 nM | IC50 [3, 7]: 287 nM | IC50 [4]: 35 nM | HLM QH [5]: 30% | fraction unbound [6]: 0.58

C[C@H](Oc1cc(C2CCCO2)nc(-c2noc3c2CCC[C@@]32CCCc3sc(N)c(C#N)c32)n1)[C@@H]1CCCN1C (some centres unmarked) [II-44]
IC50 [1]: 28 nM | IC50 [2]: 14 nM | IC50 [3, 7]: 398 nM | IC50 [4]: 6000 nM | HLM QH [5]: 31% | fraction unbound [6]: 0.39

C[C@H](O)Cn1ccc(-c2cc(O[C@@H](C)[C@@H]3CCCN3C)nc(-c3onc4c3CCC[C@@]43CCCc4sc(N)c(C#N)c43)n2)n1 [I-31]
IC50 [1]: 9 nM | IC50 [2]: 9 nM | IC50 [3, 7]: 266 nM | IC50 [4]: 57 nM | HLM QH [5]: <24% | fraction unbound [6]: 0.53

C[C@H](Oc1cc(-n2ccnn2)nc(-c2onc3c2CCC[C@@]32CCCc3sc(N)c(C#N)c32)n1)[C@@H]1CCCN1C [I-32]
IC50 [1]: 3 nM | IC50 [2]: 3 nM | IC50 [3, 7]: 303 nM | IC50 [4]: 52 nM | HLM QH [5]: 45% | fraction unbound [6]: 0.48

C[C@H](Oc1cc(-n2ccc(C(=O)N[C@@H]3CCOC3)n2)nc(-c2onc3c2CCC[C@@]32CCCc3sc(N)c(C#N)c32)n1)[C@@H]1CCCN1C [I-56]
IC50 [1]: 3 nM | IC50 [2]: 4 nM | IC50 [3, 7]: 2 nM | IC50 [4]: 25 nM | HLM QH [5]: 25% | fraction unbound [6]: 0.32

CN[C@H]1CCN(c2cc(O[C@@H](C)[C@@H]3CCCN3C)nc(-c3noc4c3CCC[C@@]43CCCc4sc(N)c(C#N)c43)n2)C1 [II-35]
IC50 [1]: 1290 nM | IC50 [2]: 1680 nM | IC50 [3, 7]: 457 nM | IC50 [4]: 4730 nM | HLM QH [5]: <24% | fraction unbound [6]: 0.77

C[C@H](Oc1cc(N2CCNC3(COC3)C2)nc(-c2noc3c2CCC[C@@]32CCCc3sc(N)c(C#N)c32)n1)[C@@H]1CCCN1C [II-31]
IC50 [1]: 69 nM | IC50 [2]: 65 nM | IC50 [3, 7]: 143 nM | IC50 [4]: 208 nM | HLM QH [5]: 42% | fraction unbound [6]: 0.63

C[C@H](Oc1cc(N2CCNC3(CC3)C2)nc(-c2onc3c2CCC[C@@]32CCCc3sc(N)c(C#N)c32)n1)[C@@H]1C[C@@H](F)CN1C [I-45]
IC50 [1]: 280 nM | IC50 [2]: 453 nM | IC50 [3, 7]: 470 nM | IC50 [4]: 1190 nM | HLM QH [5]: 45% | fraction unbound [6]: 0.14

C[C@H](Oc1cc(N2CCN(C)C3(CCC3)C2)nc(-c2onc3c2CCC[C@@]32CCCc3sc(N)c(C#N)c32)n1)[C@@H]1CCCN1C [I-44]
IC50 [1]: 509 nM | IC50 [2]: 1050 nM | IC50 [3, 7]: 2330 nM | IC50 [4]: 1200 nM | HLM QH [5]: <24% | fraction unbound [6]: 0.22

C[C@H](Oc1cc(N2C[C@@H](N(C)C)[C@@H](O)C2)nc(-c2noc3c2CCC[C@@]32CCCc3sc(N)c(C#N)c32)n1)[C@@H]1CCCN1C [II-10]
IC50 [1]: 844 nM | IC50 [2]: 957 nM | IC50 [3, 7]: 570 nM | IC50 [4]: 3540 nM | HLM QH [5]: <24% | fraction unbound [6]: 0.69

CO[C@H]1CCN(C)[C@@H]1[C@H](C)Oc1cc(-n2ccc(C(=O)N[C@@H]3CCOC3)n2)nc(-c2onc3c2CCC[C@@]32CCCc3sc(N)c(C#N)c32)n1 [I-53]
IC50 [1]: 2 nM | IC50 [2]: 1 nM | IC50 [3, 7]: 1 nM | IC50 [4]: 13 nM | HLM QH [5]: 56% | fraction unbound [6]: 0.05

C[C@H](Oc1cc(-n2nccn2)nc(-c2onc3c2CCC[C@@]32CCCc3sc(N)c(C#N)c32)n1)[C@@H]1CCCN1C [I-29]
IC50 [1]: 18 nM | IC50 [2]: 15 nM | IC50 [3, 7]: 2760 nM | IC50 [4]: 97 nM | HLM QH [5]: 27% | fraction unbound [6]: 0.54

C[C@H](Oc1cc(-c2ccc(N)nc2)nc(-c2onc3c2CCC[C@@]32CCCc3sc(N)c(C#N)c32)n1)[C@@H]1CCCN1C [I-25]
IC50 [1]: 92 nM | IC50 [2]: 57 nM | IC50 [3, 7]: 188 nM | IC50 [4]: 285 nM | HLM QH [5]: <24% | fraction unbound [6]: 0.35

C[C@H](Oc1cc(-n2ccc(C(N)=O)n2)nc(-c2noc3c2CCC[C@@]32CCCc3sc(N)c(C#N)c32)n1)[C@@H]1CCCN1C [II-21]
IC50 [1]: 4 nM | IC50 [2]: 3 nM | IC50 [3, 8]: 10 nM | IC50 [3, 7]: 4 nM | IC50 [4]: 35 nM | HLM QH [5]: <24% | fraction unbound [6]: 0.24

CO[C@H]1CCN(C)[C@@H]1[C@H](C)Oc1cc(-n2ccc(CC(=O)NC(C)C)n2)nc(-c2onc3c2CCC[C@@]32CCCc3sc(N)c(C#N)c32)n1 [I-48]
IC50 [1]: 4 nM | IC50 [2]: 4 nM | IC50 [3, 7]: 4 nM | IC50 [4]: 13 nM | HLM QH [5]: 51% | fraction unbound [6]: 0.12

CO[C@H]1CCN(C)[C@@H]1[C@H](C)Oc1cc(N2CCNC3(CC3)C2)nc(-c2onc3c2CCC[C@@]32CCCc3sc(N)c(C#N)c32)n1 [I-49]
IC50 [1]: 130 nM | IC50 [2]: 184 nM | IC50 [3, 7]: 145 nM | IC50 [4]: 905 nM | HLM QH [5]: 40% | fraction unbound [6]: 0.15

C[C@H](Oc1cc(-c2ccn(C[C@@H]3CCCO3)n2)nc(-c2noc3c2CCC[C@@]32CCCc3sc(N)c(C#N)c32)n1)[C@@H]1CCCN1C [II-43]
IC50 [1]: 37 nM | IC50 [2]: 8 nM | IC50 [3, 7]: 117 nM | IC50 [4]: 24 nM | HLM QH [5]: <24% | fraction unbound [6]: 0.11
